Laboratory results from patent publication US20130252951A1, “7-HYDROXY-PYRAZOLO[1,5-A] PYRIMIDINE COMPOUNDS AND THEIR USE AS CCR2 RECEPTOR ANTAGONISTS” (Proximagen Limited, priority 2010, published 2013).

Experiments:
human CCR2 [1] = biological target: T1, human CCR2 (Homo sapiens, UniProt P41597); assay: CCR2 binding assay ([125I]-MCP-1 displacement, SPA); parameters: expressed in transfected cells; host or cells: HEK293 EBNA cells (membrane preparation); details: human CCR2-HEK293 EBNA membranes
Description: The binding of test compounds to the CCR2 receptor was evaluated using [^125I]-MCP-1.
Briefly, 25 μL assay buffer (25 mM HEPES, pH 7.4, 5 mM MgCl2, 1 mM CaCl2, 0.2% (w/v) protease free BSA, 100 μg/mL bacitracine and 0.1 M NaCl) was placed into total binding wells and 25 μL unlabelled ligand (0.4 μM MCP-1, for determination of non-specific binding) was placed into non-specific binding wells. [^125I]-MCP-1 (25 μL), human CCR2-HEK293 EBNA membrane preparation (25 μL) and SPA beads (25 μL) were added to all the wells. The wells were incubated for 4 h and counted for 1 min/well in a Perkin Elmer Topcount NXT.
The SPA beads (wheat germ agglutinin (WGA) PEI Type A PVT 0.25 mg/well) were prepared by reconstituting lyophilised bead to 100 mg/mL with de-ionised water and further diluting in assay buffer to give 10 mg/mL. The radioligand ([^125I]-MCP-1) was prepared by dilution in assay buffer to give 0.32 μCi/mL, ˜17600 dpm/25 μL (specific activity 2000 Ci/mMol). The final assay concentration was 0.04 nM. The human CCR2-HEK293 EBNA cells membranes were prepared as follows: cells were spun down at 1000×g for 3 min at room temperature, washed in PBS and spun down again. The cells were then homogenised with an Ultra Turrax at setting 6 in 5-10 mL ice cold buffer A (EDTA 10 mM, HEPES 10 mM, pH 7.4) for 10 sec. Following dilution with further ice cold buffer A and spinning at 20000×g for 20 min at 4° C., the mixture was re-homogenised in 5-10 mL ice cold buffer B (EDTA 0.1 mM, HEPES 10 mM, pH 7.4) and spun at 20000×g for 20 min at 4° C. The protein was assayed and re-suspended in buffer C (Buffer B+1 tablet/10 mL of Roche protease inhibitor cocktail) at 3 mg/mL. Before use, the membranes were thawed and diluted with assay buffer to give 80 μg/mL (2 μg/well).
Specific binding was determined as the difference between total binding in the absence of antagonist and binding in the presence of excess antagonist (non-specific binding). Data was expressed as a percentage of specific binding and analysed by a 4-parameter logistic equation using GraphPad Prism 4 software (GraphPad, San Diego, Calif., USA) to yield IC50 values. Ki values were calculated from the IC50 values using the correction for radioligand concentration.

human CCR2 [2] = biological target: T1, human CCR2; assay: CCR2 functional calcium assay (FLIPR calcium flux, hMCP-1 challenge); assay type: cell-based; parameters: expressed in transfected cells; host or cells: HEK293 EBNA cells
In short: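 FLIPR Fluo-4 calcium flux in HEK293 EBNA cells transfected with human CCR2, with non-transfected cells as control. Compounds (10-point 1:3 curves, typically 30 μM to 0.5 nM) were added in HBSS/20 mM HEPES/0.1% BSA, pH 7.4, followed by MCP-1 challenge. Peak minus basal signal was expressed as % of EC50 MCP-1 response.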

[3] = system: rat model of STZ induced diabetes; assay: rat model of STZ induced diabetes (diabetic nephropathy), kidney histology; assay type: in vivo; details: male Wistar rats, STZ 50 mg/kg i.p., 8 mg/kg/day oral, kidney day 43, p<0.01 vs STZ-vehicle
Description: Diabetic nephropathy is a common manifestation of renal disease and is defined as the progressive development of renal insufficiency in the setting of hyperglycaemia. This sustained hyperglycaemia causes glomerular mesangial expansion through increased synthesis and decreased degradation of extracellular matrix protein, which progressively destroys the glomerular capillaries, eventually leading to proteinuria and renal failure. Animal models for diabetes can be employed for assessing the mechanisms of the disease, screening potential therapies for the treatment of this condition, and evaluation of therapeutic options. […] A single intraperitoneal injection of STZ in rats results in selective damage of the insulin producing beta cells in the pancreas causing insulin deficiency and subsequent hyperglycaemia after 48 hours. Over the time course of this procedure which can last from 3 weeks to many months, animals develop modest elevations in albuminuria and serum creatinine and some of the histological lesions associated with diabetic nephropathy. The aim of this study was to determine the efficacy of a test compound CCR2 antagonist (Example 33) in a rat model of STZ induced diabetes.
Male Wistar rats were given daily oral administration of the vehicle (30% w/v hydroxypropyl-beta-cyclodextrin (HPBC)) in saline to groups 1 and 3, or oral administration of Example 33 (8 mg/kg/day) to group 2, from 3 days prior to administration of streptozotocin. On day 0 streptozotocin was injected (50 mg/kg body wt, i.p. dissolved in 20 mM sodium citrate buffer) to rats in groups 1 and 2 (STZ groups). Group 3 rats (sham) were injected with an equivalent volume of 20 mM sodium citrate buffer. On day 43 all animals were culled, the left kidney was removed and cut in a sagittal section. These tissue samples were fixed by immersion in 10% (wt/vol) formaldehyde in phosphate-buffered saline (PBS) (0.01 mol/L, pH 7.4) at room temperature. […] The measured parameters were 1) monocyte and macrophage infiltration, 2) tubular damage and 3) glomerular damage. […]

[4] = HEK293 EBNA cells transfected with human CCR2, hMCP-1 challenge, read-out: Functional CCR2 fKi

T1 sequence (P41597 whole entry): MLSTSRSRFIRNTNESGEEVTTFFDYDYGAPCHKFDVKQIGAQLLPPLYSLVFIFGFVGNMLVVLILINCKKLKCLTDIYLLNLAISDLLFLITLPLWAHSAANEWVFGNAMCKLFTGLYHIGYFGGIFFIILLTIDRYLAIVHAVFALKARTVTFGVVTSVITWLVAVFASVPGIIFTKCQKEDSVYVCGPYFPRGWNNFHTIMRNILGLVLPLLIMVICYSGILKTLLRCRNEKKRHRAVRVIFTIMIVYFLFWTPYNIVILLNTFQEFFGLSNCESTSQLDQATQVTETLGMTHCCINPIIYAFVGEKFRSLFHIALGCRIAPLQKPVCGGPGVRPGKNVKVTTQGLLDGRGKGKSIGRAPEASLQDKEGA

Row | Molecule | Ki (human CCR2 [1]) [nM] | Ki (human CCR2 [2]; [4]) [nM] | also measured
1 | Cc1nc2ccnn2c(O)c1Cc1ccc(Cl)cc1 [Example 1, 6-[(4-Chlorophenyl)methyl]-5-methylpyrazolo[1,5-a]pyrimidin-7-ol] | 100 to 1000 | 10 to 100 | 
2 | CCCc1nc2ccnn2c(O)c1Cc1ccc(C(F)(F)F)c(F)c1 [Example 16, 6-{[3-Fluoro-4-(trifluoromethyl)phenyl]-methyl}-5-propylpyrazolo[1,5-a]-pyrimidin-7-ol] | 100 to 1000 | < 10 | 
3 | Oc1c(Cc2cccc(Cl)c2)c(C2CC2)nc2ccnn12 [Example 21, 6-[(3-Chlorophenyl)methyl]-5-cyclo-propylpyrazolo[1,5-a]pyrimidin-7-ol] | 10 to 100 | < 10 | 
4 | Oc1c(Cc2cccc(C(F)(F)F)c2)c(C2CC2)nc2ccnn12 [Example 22, 5-Cycloproyl-6-{[3-(trifluoromethyl)-phenyl]methyl}pyrazolo[1,5-a]pyrimidin-7-ol] | 10 to 100 | < 10 | 
5 | Oc1c(Cc2cc(F)cc(C(F)(F)F)c2)c(C2CC2)nc2ccnn12 [Example 33, 5-Cyclopropyl-6-{[3-fluoro-5-(trifluoro-methyl)phenyl]methyl}pyrazolo[1,5-a]-pyrimidin-7-ol] | 10 to 100 | < 10 | glomerular damage (semiquantitative score) [3]: statistically significant effect reducing; monocyte and macrophage infiltration (semiquantitative score) [3]: statistically significant effect reducing; tubular damage (semiquantitative score) [3]: statistically significant effect reducing
6 | CC(C)c1nc2ccnn2c(O)c1Cc1ccc(F)c(Cl)c1 [Example 37, 6-[(3-Chloro-4-fluorophenyl)methyl]-5-(propan-2-yl)pyrazolo[1,5-a]pyrimidin-7-ol] | < 10 | < 10 | 
7 | CC(C)c1nc2ccnn2c(O)c1Cc1ccc(F)c(C(F)(F)F)c1 [Example 40, 6-{[4-Fluoro-3-(trifluoromethyl)phenyl]-methyl}-5-(propan-2-yl)pyrazolo[1,5-a]-pyrimidin-7-ol] | 100 to 1000 | < 10 | 
8 | CCc1nc2ccnn2c(O)c1Oc1ccc(Cl)c(Cl)c1 [Example 64, 6-(3,4-Dichlorophenoxy)-5-ethyl-pyrazolo[1,5-a]pyrimidin-7-ol] | 10 to 100 | < 10 | 
9 | Oc1c(Oc2ccc(Br)cc2)c(C2CC2)nc2ccnn12 [Example 65, 6-(4-Bromophenoxy)-5-cyclopropyl-pyrazolo[1,5-a]pyrimidin-7-ol] | 100 to 1000 | < 10 | 
10 | CCOC(=O)c1nc2ccnn2c(O)c1Cc1cccc(Cl)c1 [Example 70, Ethyl 6-[(3-chlorophenyl)methyl]-7-hydroxypyrazolo[1,5-a]pyrimidine-5-carboxylate] | 100 to 1000 | < 10 | 
11 | CCOC(=O)c1nc2ccnn2c(O)c1Cc1ccc(Cl)c(Cl)c1 [Example 72, Ethyl 6-[(3,4-dichlorophenyl)methyl]-7-hydroxypyrazolo[1,5-a]pyrimidine-5-carboxylate] | 10 to 100 | < 10 | 
12 | COCCNC(=O)c1cnn2c(O)c(Cc3ccc(Cl)c(Cl)c3)c(C)nc12 [Example 115, 6-[(3,4-Dichlorophenyl)methyl]-7-hydroxy-N-(2-methoxyethyl)-5-methylpyrazolo-[1,5-a] pyrimidine-3-carboxamide] |  | 10 to 100 | 
13 | COCCNC(=O)c1cnn2c(O)c(Cc3cccc(Cl)c3)c(C)nc12 [Example 116, 6-[(3-Chlorophenyl)methyl]-7-hydroxy-N-(2-methoxyethyl)-5-methylpyrazolo[1,5-a]-pyrimidine-3-carboxamide] |  | 100 to 1000 | 
14 | CCc1nc2c(C(=O)NCCOC)cnn2c(O)c1Cc1ccc(Cl)cc1 [Example 117, 6-[(4-Chlorophenyl)methyl]-5-ethyl-7-hydroxy-N-(2-methoxyethyl)pyrazolo-[1,5-a]pyrimidine-3-carboxamide] |  | 10 to 100 | 
15 | COCCNC(=O)c1cnn2c(O)c(Cc3ccc(Cl)cc3)c(COC)nc12 [Example 118, 6-[(4-Chlorophenyl)methyl]-7-hydroxy-N-(2-methoxy-ethyl)5-(methoxymethyl)-pyrazolo[1,5-a]pyrimidine-3-carboxamide] |  | 100 to 1000 | 
16 | O=C1Nc2ccccc2C2(CCN(CCc3ccc(C(F)(F)F)cc3)CC2)O1 [RS102895, reference compound] |  |  | inhibition of CCR2 calcium response (human CCR2 [2]; at 2 μM): full inhibition; Ki (human CCR2 [2]; reference antagonist, read-out: fKi): 84 nM
17 | MCP-1: human recombinant MCP-1, positive control (agonist) of the CCR2 functional assay |  |  | EC50 (human CCR2 [2]; agonist positive control): 3 to 5 nM; concentration giving maximal response (human CCR2 [2]; agonist positive control): 30 nM
